Patent publication US20160235727A1, “NOVEL PYRROLIDINE DERIVED BETA 3 ADRENERGIC RECEPTOR AGONISTS” (Merck Sharp & Dohme Corp., priority 2013, published 2016)
Where two headings read alike, the source gives them in different places.

Molecular target: T1, human β3-AR (Homo sapiens, UniProt P13945)
T1 construct: expressed in transfected cells; host or cells: CHO (Chinese hamster ovary) cells, stably transfected
Assay: cAMP functional agonist assay (LANCE TR-FRET) in CHO cells expressing cloned human β3-AR
Type: cell-based
Details: for Fold drop in potency vs. 2-chloropyridine analog: EC50 of comparative example divided by EC50 of corresponding 2-chloropyridine compound; for Human β3-AR Agonist Activity (%): percent maximum activation relative to isoproterenol

[1] = CHO cells stably expressing cloned human β3-adrenoceptor, cAMP release, read-out: Human β3-AR Agonism EC50

T1 sequence (P13945 whole entry): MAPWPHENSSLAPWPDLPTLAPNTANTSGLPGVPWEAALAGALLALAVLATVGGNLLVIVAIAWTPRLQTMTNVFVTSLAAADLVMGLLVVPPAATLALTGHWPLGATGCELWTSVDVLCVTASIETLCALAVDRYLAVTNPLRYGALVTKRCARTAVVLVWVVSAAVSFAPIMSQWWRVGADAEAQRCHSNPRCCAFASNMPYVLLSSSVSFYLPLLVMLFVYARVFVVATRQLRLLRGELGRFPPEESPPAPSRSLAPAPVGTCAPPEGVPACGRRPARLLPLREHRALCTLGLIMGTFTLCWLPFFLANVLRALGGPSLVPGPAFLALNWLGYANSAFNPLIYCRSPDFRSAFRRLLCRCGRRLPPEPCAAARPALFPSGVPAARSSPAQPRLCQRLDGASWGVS

SMILES	EC50 [1] [nM]	Fold drop in potency vs. 2-chloropyridine analog [fold]	Human β3-AR Agonist Activity (%)	EC50 [nM]
CN(Cc1cccnc1)C(=O)c1ccc(C[C@@H]2CC[C@H]([C@H](O)c3ccc(F)cc3)N2)cc1 [Example 21-F, 4-(((2S,5R)-5-((R)-(4-fluorophenyl)(hydroxy)methyl)pyrrolidin-2-yl)methyl)-N-methyl-N-(pyridin-3-ylmethyl)benzamide]	12	2.9	94	
CN(Cc1cccnc1)C(=O)c1ccc(C[C@@H]2CC[C@H]([C@H](O)c3ccc(Cl)cc3)N2)cc1 [Example 21-G, 4-(((2S,5R)-5-((R)-(4-chlorophenyl)(hydroxy)methyl)pyrrolidin-2-yl)methyl)-N-methyl-N-(pyridin-3-ylmethyl)benzamide]	6	1.3	88	
CN(Cc1cccnc1)C(=O)c1ccc(C[C@@H]2CC[C@H]([C@H](O)c3cccnc3)N2)cc1 [Example 21-H, 4-(((2S,5R)-5-((R)-hydroxy(pyridin-3-yl)methyl)pyrrolidin-2-yl)methyl)-N-methyl-N-(pyridin-3-ylmethyl)benzamide]	38	8.8	85	
CN(Cc1cccnc1)C(=O)c1ccc(C[C@@H]2CC[C@H]([C@H](O)c3ccc(C4CC4)nc3)N2)cc1 [Example 21-I, 4-(((2S,5R)-5-((R)-(6-cyclopropylpyridin-3-yl)(hydroxy)methyl)pyrrolidin-2-yl)methyl)-N-methyl-N-(pyridin-3-ylmethyl)benzamide]	19	4.4	71	
CC(=O)c1ccc([C@@H](O)[C@H]2CC[C@@H](Cc3ccc(C(=O)N(C)Cc4cccnc4)cc3)N2)cn1 [Example 21-J, 4-(((2S,5R)-5-((R)-(6-acetylpyridin-3-yl)(hydroxy)methyl)pyrrolidin-2-yl)methyl)-N-methyl-N-(pyridin-3-ylmethyl)benzamide]	≥ 10000	>2300	38	
CN(Cc1cccnc1)C(=O)c1ccc(C[C@@H]2CC[C@H]([C@H](O)c3ccc(C(N)=O)nc3)N2)cc1 [Example 21-K, 5-((R)-hydroxy((2R,5S)-5-(4-(methyl(pyridin-3-ylmethyl)carbamoyl)benzyl)pyrrolidin-2-yl)methyl)picolinamide]	112	26.3	87	
Cc1nc(-c2ccc([C@@H](O)[C@H]3CC[C@@H](Cc4ccc(C(=O)N(C)Cc5cccnc5)cc4)N3)cn2)no1 [Example 21-L, 4-(((2S,5R)-5-((R)-hydroxy(6-(5-methyl-1,2,4-oxadiazol-3-yl)pyridin-3-yl)methyl)pyrrolidin-2-yl)methyl)-N-methyl-N-(pyridin-3-ylmethyl)benzamide]	≥ 10000	>2300	3	
CN(Cc1cccnc1)C(=O)c1ccc(C[C@@H]2CC[C@H]([C@H](O)c3ccc(N)nc3)N2)cc1 [Example 21-M, 4-(((2S,5R)-5-((R)-(6-aminopyridin-3-yl)(hydroxy)methyl)pyrrolidin-2-yl)methyl)-N-methyl-N-(pyridin-3-ylmethyl)benzamide]	20	4.7	97	
CN(Cc1cccnc1)C(=O)c1ccc(C[C@@H]2CC[C@H]([C@H](O)c3ccc(NC4CC4)nc3)N2)cc1 [Example 21-N, 4-(((2S,5R)-5-((R)-(6-(cyclopropylamino)pyridin-3-yl)(hydroxy)methyl)pyrrolidin-2-yl)methyl)-N-methyl-N-(pyridin-3-ylmethyl)benzamide]	≥ 10000	>2300	27	
CN(Cc1cccnc1)C(=O)c1ccc(C[C@@H]2CC[C@H]([C@H](O)c3ccc(C#N)nc3)N2)cc1 [Example 21-O, 4-(((2S,5R)-5-((R)-(6-cyanopyridin-3-yl)(hydroxy)methyl)pyrrolidin-2-yl)methyl)-N-methyl-N-(pyridin-3-ylmethyl)benzamide]	274	64.3	77	
COc1ccc([C@@H](O)[C@H]2CC[C@@H](Cc3ccc(C(=O)N(C)Cc4cccnc4)cc3)N2)cn1 [Example 21-P, 4-(((2S,5R)-5-((R)-hydroxy(6-methoxypyridin-3-yl)methyl)pyrrolidin-2-yl)methyl)-N-methyl-N-(pyridin-3-ylmethyl)benzamide]	24	5.7	93	
CN(Cc1cccnc1)C(=O)c1ccc(C[C@@H]2CC[C@H]([C@H](O)c3cncc(F)c3)N2)cc1 [Example 21-R, 4-(((2S,5R)-5-((R)-(5-fluoropyridin-3-yl)(hydroxy)methyl)pyrrolidin-2-yl)methyl)-N-methyl-N-(pyridin-3-ylmethyl)benzamide]	57	13.3	91	
Cc1cc([C@@H](O)[C@H]2CC[C@@H](Cc3ccc(C(=O)N(C)Cc4cccnc4)cc3)N2)cnc1Cl [Example 21-S, 4-(((2S,5R)-5-((R)-(6-chloro-5-methylpyridin-3-yl)(hydroxy)methyl)pyrrolidin-2yl)methyl)-N-methyl-N-(pyridin-3-ylmethyl)benzamide]	307	72.1	84	
CCN(Cc1cccnc1)C(=O)c1ccc(C[C@@H]2CC[C@H]([C@H](O)c3ccc(Cl)nc3)N2)cc1 [Example 22-A, 4-(((2S,5R)-5-((R)-(6-chloropyridin-3-yl)(hydroxy)methyl)pyrrolidin-2-yl)methyl)-N-ethyl-N-(pyridin-3-ylmethyl)benzamide]	5		62	
CCN(Cc1cccnc1)C(=O)c1ccc(C[C@@H]2CC[C@H]([C@H](O)c3ccccc3)N2)cc1 [Example 22-B, N-ethyl-4-(((2S,5R)-5-((R)-hydroxy(phenyl)methyl)pyrrolidin-2-yl)methyl)-N-(pyridin-3-ylmethyl)benzamide]	10	2.0	103	
CC(c1cccnc1)N(C)C(=O)c1ccc(C[C@@H]2CC[C@H]([C@H](O)c3ccc(Cl)nc3)N2)cc1 (stereo partly drawn) [Example 23-A, 4-(((2S,5R)-5-((R)-(6-chloropyridin-3-yl)(hydroxy)methyl)pyrrolidin-2-yl)methyl)-N-methyl-N-(1-(pyridin-3-yl)ethyl)benzamide]			96	2
CC(c1cccnc1)N(C)C(=O)c1ccc(C[C@@H]2CC[C@H]([C@H](O)c3ccccc3)N2)cc1 (stereo partly drawn) [Example 23-B, 4-(((2S,5R)-5-((R)-hydroxy(phenyl)methyl)pyrrolidin-2-yl)methyl)-N-methyl-N-(1-(pyridin-3-yl)ethyl)benzamide]	3	1.5	93	
